# Structures can show the parent of a compound that is named as a salt.
# Tests used:
# [1] = test system: CORT-induced Kunming mouse model; assay: In vivo antidepressant study of BEL: behavioral tests (FST, TST, SPT, NSFT); design: species or system Kunming (KM) mice; conditions: CORT-induced mice
# [2] = test system: CORT-induced Kunming mouse model; assay: In vivo antidepressant study of BEL: body weight, diet, water intake; design: species or system Kunming (KM) mice; conditions: 21 d, CORT-induced mice
# Description: After one week of adaptive feeding of experimental mice, 10 mice were randomly selected from 150 mice as a normal group, and the mice in the normal group were not treated in any way. […] The dosing volume was changed once a week according to the weight of the mice, and the mice were subcutaneously administered in the groin of the hind limb between 9:00 and 11:00 am every day. During the modeling, the weight, diet, and water intake of the mice were recorded, and the relevant data were counted once a week until the modeling was completed. During the modeling, the mice were subjected to behavioral analysis. 4 behavioral test designs were designed: FST, TST, SPT, and NSFT. […] There were 5 mice/cage in the normal group and 5 mice/cage in the model group. […] Behavioral experiments were conducted once a week, and the serum 5-HT and CORT levels of mice were recorded. The results were shown in Tables 3 to 5 and FIG. 12A to FIG. 14B.
# [3] = test system: CREB; assay: CREB / p-CREB protein expression in hippocampus (immunoblot); assay type: in vivo, mice; conditions: 21 d
# Text: (§1) There was no significant difference in the expression of p-CREB protein among the groups.
# [4] = test system: 5-HT; assay: Serum 5-HT level, BEL study; assay type: in vivo; conditions: CORT-induced mice
# Description: (§2) Behavioral experiments were conducted once a week, and the serum 5-HT and CORT levels of mice were recorded.
# [5] = test system: hippocampal neurons; assay: Golgi staining of brain tissue: neuron dendrite length and dendritic spine density; assay type: in vivo, mice; conditions: 21 d; for Neuron dendrite length, Maximum / Neuron dendrite length, Mean / Neuron dendrite length, Minimum: mouse hippocampus
# Text: (§3) Compared with the normal group, the hippocampus structure of the model group mice was abnormal, the cells were wrinkled and then irregularly arranged. After administration, the hippocampus structure returned to normal and the cells were arranged regularly. […] [0172](3) After 21 d of drug administration, brain tissues of mice in each treatment group were collected for Golgi staining.
# • (4) After 21 d of drug administration, the dendritic spine density of neurons in the hippocampus of mice was counted. […] The effect intensity was as follows: 10 mg/kg BEL treatment group >20 mg/kg BEL treatment group BEL 40 mg/kg BEL treatment group.
# [6] = test system: 5-HT2A; assay: 5-HT2A protein expression in hippocampus (immunoblot); assay type: in vivo, mice; conditions: 21 d, vs model group
# Text: as §1
# [7] = Mass spectrometry imaging of mouse brain; assay type: in vivo, mice; conditions: mass spectrometry imaging, 21 d
# [8] = test system: neurons in the hippocampus of mice; assay: H & E staining and immunofluorescence histochemistry of hippocampus; assay type: in vivo; conditions: 21 d of administration, CORT-induced mice
# Text: [0170](2) After 21 d of drug administration, the hippocampus of mice in each treatment group was stained with H & E, and the proliferation of neurons in the hippocampus of mice was detected by immunofluorescence histochemistry.
# as §3
# [9] = test system: 5-HT1A; assay: 5-HT1A protein expression in hippocampus (immunoblot); assay type: in vivo, mice; conditions: 10 and 20 mg/kg, 21 d, vs model group
# Text: as §1
# [10] = test system: HT22 cells; assay: CORT-induced HT22 cell viability, BEL; assay type: cell-based; conditions: Mus musculus, HT-22, 250 μM CORT, 24 h, model = 100.00
# [11] = test system: mice; assay: Acute toxicity study of BEL in mice; assay type: in vivo
# [12] = test system: Arg1; assay: Arg1 protein expression in hippocampus (immunoblot); assay type: in vivo, mice; conditions: 10 mg/kg, 21 d, vs model group
# Text: as §1
# [13] = test system: CORT; assay: Serum CORT level, BEL study; assay type: in vivo; conditions: CORT-induced mice
# Description: as §2
# [14] = serum, 214 mg/kg gavage, 3 times within 24 h
smiles,measurement,setting,value
"COc1cc(O)c2c(=O)c3c(O)ccc(O)c3oc2c1 [BEL, bellidifolin]",FST immobility time,[1]; 10 mg/kg/d gavage,145.00 ± 36.40 s
same,NSFT start time of eating,[1]; 10 mg/kg/d gavage,42.75 ± 31.56 s
same,SPT sugar water preference,[1]; 10 mg/kg/d gavage,13.72 ± 0.30 %
same,TST immobility time,[1]; 10 mg/kg/d gavage,27.50 ± 16.05 s
same,FST immobility time,[1]; 20 mg/kg/d gavage,127.14 ± 36.38 s
same,NSFT start time of eating,[1]; 20 mg/kg/d gavage,57.14 ± 35.77 s
same,SPT sugar water preference,[1]; 20 mg/kg/d gavage,12.41 ± 3.32%
same,TST immobility time,[1]; 20 mg/kg/d gavage,47.22 ± 35.19 s
same,FST immobility time,[1]; 40 mg/kg/d gavage,193.33 ± 25.98 s
same,NSFT start time of eating,[1]; 40 mg/kg/d gavage,38.78 ± 22.73 s
same,SPT sugar water preference,[1]; 40 mg/kg/d gavage,8.75 ± 0.18%
same,TST immobility time,[1]; 40 mg/kg/d gavage,98.75 ± 66.35 s
same,Body weight,[2]; 10 mg/kg/d gavage,37.19 ± 3.35 g
same,Diet,[2]; 10 mg/kg/d gavage,4.02 ± 0.03 g/day
same,Water intake,[2]; 10 mg/kg/d gavage,4.72 ± 0.42 g/day
same,Body weight,[2]; 20 mg/kg/d gavage,37.33 ± 3.30 g
same,Diet,[2]; 20 mg/kg/d gavage,4.48 ± 0.45 g/day
same,Water intake,[2]; 20 mg/kg/d gavage,4.87 ± 0.99 g/day
same,Body weight,[2]; 40 mg/kg/d gavage,36.31 ± 3.72 g
same,Diet,[2]; 40 mg/kg/d gavage,5.14 ± 1.00 g/day
same,Water intake,[2]; 40 mg/kg/d gavage,6.82 ± 0.45 g/day
same,CREB protein level in hippocampus,"[3]; 10 mg/kg, reduced level in model group",could significantly reverse this phenomenon
same,Phosphorylation level of CREB in hippocampus,"[3]; 40 mg/kg, vs model group",significantly decreased
same,Serum 5-HT,[4]; 10 mg/kg/d gavage,134.29 ± 12.34 ng/mL
same,Serum 5-HT,[4]; 20 mg/kg/d gavage,216.11 ± 3.34 ng/mL
same,Serum 5-HT,[4]; 40 mg/kg/d gavage,133.42 ± 30.76 ng/mL
same,"Neuron dendrite length, Maximum",[5]; 10 mg/kg/d gavage,1853.00 μm
same,"Neuron dendrite length, Mean",[5]; 10 mg/kg/d gavage,75.66 ± 60.55 μm
same,"Neuron dendrite length, Minimum",[5]; 10 mg/kg/d gavage,5.86 μm
same,"Neuron dendrite length, Maximum",[5]; 20 mg/kg/d gavage,2297.92 μm
same,"Neuron dendrite length, Mean",[5]; 20 mg/kg/d gavage,140.64 ± 73.11 μm
same,"Neuron dendrite length, Minimum",[5]; 20 mg/kg/d gavage,6.32 μm
same,"Neuron dendrite length, Maximum",[5]; 40 mg/kg/d gavage,194.06 μm
same,"Neuron dendrite length, Mean",[5]; 40 mg/kg/d gavage,51.73 ± 33.73 μm
same,"Neuron dendrite length, Minimum",[5]; 40 mg/kg/d gavage,6.04 μm
same,Dendritic spine density of hippocampal neurons,"[5]; 10, 20 and 40 mg/kg, vs model group",could significantly increase the dendritic spine density
same,Number and length of neurons in the hippocampus (Golgi staining),[5]; 10 and 20 mg/kg,increased the number of neurons and the length of neurons
same,Expression of 5-HT2A protein in hippocampus,[6],had no effect on the expression of 5-HT2A
same,Distribution in brain,[7],"mainly distributed in the hypothalamus, amygdala, hippocampus, and cortex of mice"
same,Proliferation of neurons in the hippocampus (immunohistofluorescence),[8],could promote the proliferation of neurons in the mouse hippocampus
same,Expression of 5-HT1A protein in hippocampus,[9],could significantly promote the expression of 5-HT1A protein
same,viability at 0.0625 µM,[10],103 ± 5.03%
same,viability at 0.125 µM,[10],107 ± 2.64%
same,viability at 0.25 µM,[10],115 ± 3.93%
same,viability at 0.5 µM,[10],120 ± 3.97%
same,viability at 1 µM,[10],139 ± 5.34%
same,Observation during 14-d period,"[11]; 214 mg/kg gavage 3 times within 24 h, subsequent 14-d observation",did not show any abnormalities
same,"Toxic side effects (weight, brain, liver, kidneys)","[11]; 214 mg/kg gavage, 3 times within 24 h",no toxic side effects on mice
same,Weight,"[11]; 214 mg/kg gavage, 3 times within 24 h, 14 d observation",39.18 ± 3.94 g
same,Observation after treatment,"[11]; 214 mg/kg gavage, 20 min after the second treatment","slight tremors, which disappeared after 2 min"
same,ALT,[11]; [14],26.85 ± 6.22 U/L
same,AST,[11]; [14],48.73 ± 4.15 U/L
same,CRE,[11]; [14],23.20 ± 5.69 µmol/L
same,Expression of Arg1 protein in hippocampus,[12],could significantly reverse the decrease in Arg1 expression
same,Serum CORT,[13]; 10 mg/kg/d gavage,107.08 ± 8.16 ng/mL
same,Serum CORT,[13]; 20 mg/kg/d gavage,111.82 ± 8.27 ng/mL
same,Serum CORT,[13]; 40 mg/kg/d gavage,93.63 ± 11.48 ng/mL
"CNCCC(Oc1ccc(C(F)(F)F)cc1)c1ccccc1 (stereo not shown) [Flu, fluoxetine hydrochloride, reference compound]",FST immobility time,[1]; 20 mg/kg/d gavage,178.50 ± 36.52 s
same,NSFT start time of eating,[1]; 20 mg/kg/d gavage,84.50 ± 32.69 s
same,SPT sugar water preference,[1]; 20 mg/kg/d gavage,13.28 ± 0.56 %
same,TST immobility time,[1]; 20 mg/kg/d gavage,71.43 ± 40.80 s
same,Body weight,[2]; 20 mg/kg/d gavage,27.03 ± 1.74 g
same,Diet,[2]; 20 mg/kg/d gavage,3.90 ± 0.39 g/day
same,Water intake,[2]; 20 mg/kg/d gavage,4.00 ± 0.97 g/day
same,"Neuron dendrite length, Maximum",[5]; 20 mg/kg/d gavage,180.19 μm
same,"Neuron dendrite length, Mean",[5]; 20 mg/kg/d gavage,54.65 ± 32.76 μm
same,"Neuron dendrite length, Minimum",[5]; 20 mg/kg/d gavage,6.57 μm
same,viability at 0.0625 µM,[10],103 ± 4.06%
same,viability at 0.125 µM,[10],108 ± 3.95%
same,viability at 0.25 µM,[10],111 ± 1.64%
same,viability at 0.5 µM,[10],112 ± 2.77%
same,viability at 1 µM,[10],123 ± 8.39%
same,Serum CORT,[13]; 20 mg/kg/d gavage,152.77 ± 11.25 ng/mL
"CN(C)CCCN1c2ccccc2CCc2ccccc21 [Imi, imipramine hydrochloride, reference compound]",FST immobility time,[1]; 20 mg/kg/d gavage,163.00 ± 38.09 s
same,NSFT start time of eating,[1]; 20 mg/kg/d gavage,65.11 ± 32.90 s
same,SPT sugar water preference,[1]; 20 mg/kg/d gavage,8.32 ± 0.12%
same,TST immobility time,[1]; 20 mg/kg/d gavage,76.43 ± 46.52 s
same,Body weight,[2]; 20 mg/kg/d gavage,34.41 ± 1.80 g
same,Diet,[2]; 20 mg/kg/d gavage,4.38 ± 0.45 g/day
same,Water intake,[2]; 20 mg/kg/d gavage,4.92 ± 0.40 g/day
same,Serum 5-HT,[4]; 20 mg/kg/d gavage,130.24 ± 13.65 ng/mL
same,"Neuron dendrite length, Maximum",[5]; 20 mg/kg/d gavage,172.10 μm
same,"Neuron dendrite length, Mean",[5]; 20 mg/kg/d gavage,37.66 ± 25.07 μm
same,"Neuron dendrite length, Minimum",[5]; 20 mg/kg/d gavage,5.95 μm
same,Serum CORT,[13]; 20 mg/kg/d gavage,143.19 ± 12.30 ng/mL

# — patent US20250235496A1, “USE OF BELLIDIFOLIN (BEL) AND/OR BEL-CONTAINING EXTRACT IN PREPARATION OF ANTIDEPRESSANT PRODUCT” (priority 2024, published 2025)
